Measurements as given in patent US5908832A, “Peptide analog” (University of Houston - Clearlake, priority 1991, dated 1999).

Legend:
opiate-naive rats = conditions: 15 μg i.c.v.; cited from earlier work
morphine-dependent rats [1] = assay: Naloxone-precipitated abstinence in morphine-dependent rats; format: in vivo, Sprague-Dawley rats
Experimental: Each rat was stereotaxically cannulated in the third ventricle under equithesin anesthesia. Cannula placements were subsequently confirmed by injection of methylene blue dye.
Drugs for third ventricle injection were dissolved in isotonic saline.
Following the rats way infusion period, rats were randomly divided into two treatment groups of seven rats each. Each rat received a third ventricular injection of either 600 ng daY8Ra in 30 μl saline or saline alone. Twenty-eight minutes after conclusion of the above injections, all rats were challenged by 10 μg naloxone HCl in 30 μl saline i.c.v.
Each rat was subsequently observed for 20 minutes, commencing with the onset of naloxone challenge.

specific NPFF receptors = conditions: spinal cord membranes; cited from earlier work
[2] = system: analgesic effects of morphine; conditions: in vivo; cited from earlier work
morphine-dependent rats [3] = conditions: 2 μg i.c.v.; cited from earlier work

For `CC(C)C[C@H](NC(=O)[C@@H](N)Cc1ccccc1)C(=O)N[C@@H](Cc1ccccc1)C(=O)N[C@@H](CCC(N)=O)C(=O)N1CCC[C@H]1C(=O)N[C@@H](CCC(N)=O)C(=O)N[C@@H](CCCNC(=N)N)C(=O)N[C@@H](Cc1ccccc1)C(N)=O` [NPFF, Phe-Leu-Phe-Gln-Pro-Gln-Arg-Phe-amide], the “induction of quasi-morphine-abstinence syndrome (QMAS)” value (opiate-naive rats) is given as “induces a quasi-morphine-abstinence syndrome”, the “abstinence syndrome after naloxone challenge vs saline pretreatment (one-way ANOVA)” value (morphine-dependent rats [1]; 600 ng i.c.v. pretreatment, 10 μg naloxone HCl i.c.v., Example III) is given as “no significant differences among groups” and the “abstinence signs following the peptide injection itself (total frequency, M±SEM)” value (morphine-dependent rats [1]; morphine-dependent rats, 600 ng i.c.v., observed 14 minutes from onset of injection, before naloxone) is given as 3.67±0.99. For the same compound, the “affinity of the 125I-Y8Fa binding site” value (specific NPFF receptors) was “high affinity”, the “effect on analgesic effects of morphine and certain endogenous opioid peptides” value [2] was “potently antagonizes” and the “precipitation of opiate abstinence syndrome” value (morphine-dependent rats [3]) was “precipitates opiate abstinence syndrome”.
